One experiment deals with T1, CXCR2 (Homo sapiens, UniProt P25025).
T1 sequence (P25025 1-360): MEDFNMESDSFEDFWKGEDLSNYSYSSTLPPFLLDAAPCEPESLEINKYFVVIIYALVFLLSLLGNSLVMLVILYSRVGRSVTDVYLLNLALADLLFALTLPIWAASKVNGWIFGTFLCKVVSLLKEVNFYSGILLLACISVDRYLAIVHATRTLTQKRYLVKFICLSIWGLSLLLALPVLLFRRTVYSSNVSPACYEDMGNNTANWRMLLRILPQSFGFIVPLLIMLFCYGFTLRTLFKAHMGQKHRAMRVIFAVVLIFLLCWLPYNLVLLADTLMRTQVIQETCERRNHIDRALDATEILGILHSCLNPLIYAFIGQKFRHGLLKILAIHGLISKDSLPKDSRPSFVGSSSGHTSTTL
Kind of experiment: BRET Gi coupling, CXCR2/Rluc8 and Venus/mGsi without HA-AT1R, HEK293FT cells. It is filed as cell-based. Particulars: 100 nM CXCL8, 1 μM AngII, FIG. 1A. The method, then:
(§1) HEK293FT cells were seeded in 6-well plates at a density of approximately 700,000 cells/well and maintained at 37° C., 5% CO2 in Complete Media (DMEM containing 0.3 mg/ml glutamine, 100 IU/ml penicillin and 100 μg/ml streptomycin (Gibco/Thermo Fisher)) supplemented with 10% fetal calf serum (FCS; Bovogen). Transient transfections were carried out 24 h after seeding using FuGene6™ (Promega) according to manufacturer instructions. 24 h post-transfection, cells were washed with PBS, detached using 0.05% trypsin/0.53 mM EDTA, resuspended in HEPES-buffered phenol red free Complete Media containing 5% FCS and added to a poly-L-lysine-coated white 96-well microplate (Greiner Bio-One). 48 h post-transfection, bioluminescence resonance energy transfer (BRET) assays were carried out following pre-incubation of cells with EnduRen™ (Promega) at a final concentration of 30 μM, at 37° C., 5% CO2 for 2 h. BRET measurements were taken at 37° C. using the LUMlstar™ or CLARIOstar™ (BMG Labtech). Filtered light emissions were measured for 1 s in each of the ‘donor wavelength window’ (460-490 nm for LUMlstar™ or 410-490 nm for CLARIOstar™) and ‘acceptor wavelength window’ (520-550 nm for LUMlstar™ or 520-620 nm for CLARIOstar™).
The BRET signal observed between interacting proteins is normalized by subtracting the background BRET ratio. […]
(BRET reads energy transfer from a luciferase to a nearby fluorophore.)

In another experiment the target is T2, AT1R-CXCR2 heteromer (Homo sapiens, UniProt P25025+P30556).
T2 sequence (P25025 1-360): T1 sequence (P25025 1-360)
T2 sequence (P30556 1-359): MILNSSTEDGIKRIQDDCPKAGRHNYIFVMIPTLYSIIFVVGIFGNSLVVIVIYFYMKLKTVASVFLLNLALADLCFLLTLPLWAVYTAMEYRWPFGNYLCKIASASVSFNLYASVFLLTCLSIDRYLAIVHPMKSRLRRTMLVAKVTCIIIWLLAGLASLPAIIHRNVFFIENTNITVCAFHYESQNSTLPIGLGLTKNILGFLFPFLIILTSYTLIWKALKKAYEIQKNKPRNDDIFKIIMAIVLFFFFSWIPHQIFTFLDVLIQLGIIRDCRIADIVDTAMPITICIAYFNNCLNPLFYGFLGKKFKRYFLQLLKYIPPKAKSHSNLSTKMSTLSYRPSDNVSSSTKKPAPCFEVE
Put plainly: BRET trafficking of CXCR2/Rluc8 to Venus/Kras or Venus/Rab markers, presence of HA-AT1R. The class given is cell-based. As to the method: as §1
The BRET signal observed between interacting proteins is normalized by subtracting the background BRET ratio. This can be done in one of two ways (see Pfleger et al. (2006) Cell Signal 18:1664-1670; Pfleger et al. (2006) Nat Protoc 1:336-344): 1) the ratio of the 520-550 nm or 520-620 nm emission over the 460-490 nm or 410-490 nm emission for a cell sample containing only the donor construct is subtracted from the same ratio for a sample containing the interacting acceptor and donor fusion proteins; 2) the ratio of the 520-550 nm or 520-620 nm emission over the 460-490 nm or 410-490 nm emission for a cell sample treated with vehicle is subtracted from the same ratio for a second aliquot of the same cell sample treated with ligand. In the following examples, the second calculation will be used and the signal is described as ligand-induced BRET′. Furthermore, for data shown in FIGS. 4 to 20, all data points in a given set are corrected relative to the final data point prior to agonist treatment, which is fixed to zero. In keys on FIGS. 7 to 20, “>” means “followed by after 50 minutes”, with agonists added at time zero on the x-axes.
The Receptor-Heteromer Investigation Technology (Receptor-HIT) is an assay configuration that provides insights into receptor complexes (Ayoub et al. (2015) PLoS One 10(3):e0119803). It is also known as GPCR-HIT when assessing GPCRs. It is an assay configuration whereby one receptor (eg. CXCR2) is labelled with one component (eg. Renilla luciferase variant Rluc8) of a proximity-based reporter system (eg. BRET), the complementary component of which (eg. Venus yellow fluorescent protein) is fused to a receptor interacting partner (eg. mGsi).
Referring now to FIG. 3 (published in Tiulpakov et al (2016) Mol. Endocrinol. 30, 889-904), the proximity of Rluc8-tagged receptors to Venus-tagged Kras plasma membrane marker, or Venus-tagged Rabs specific for distinct subcellular locations, is monitored in live cells and in real-time using BRET. The Rab markers are: Venus/Rab5 (5) for early endosomes; Venus/Rab4 (4) for early endosome recycling; Venus/Rab11a (11) for recycling endosomes; Venus/Rab7 (7) for late endosomes/lysosomes; Venus/Rab9 (9) for late endosome trafficking to the trans-Golgi network; Venus/Rab1 (1) for endoplasmic reticulum trafficking to the cis-Golgi; Venus/Rab6 (6) for Golgi apparatus and trans-Golgi network; or Venus/Rab8 (8) for trans-Golgi network to plasma membrane.

Angiotensin II [AngII]: at CXCR2, the “ligand-induced BRET signal, CXCR2/Rluc8 and Venus/mGsi” value was “did not result in an increase”. At AT1R-CXCR2 heteromer, the “proximity of CXCR2/Rluc8 to Venus/Kras (BRET)” value is “increased proximity”, the “proximity of CXCR2/Rluc8 to Venus/Rab1 (BRET)” value is on record as “barely any effect”, the “proximity of CXCR2/Rluc8 to Venus/Rab4 (BRET)” value was “very small increase” and the “proximity of CXCR2/Rluc8 to Venus/Rab5 (BRET)” value is listed as “very small increase”. On AT1R-CXCR2 heteromer, the “proximity of CXCR2/Rluc8 to Venus/Rab6 (BRET)” value was “small increase”, the “proximity of CXCR2/Rluc8 to Venus/Rab7 (BRET)” value is “barely any effect”, the “proximity of CXCR2/Rluc8 to Venus/Rab8 (BRET)” value is “clear increase” and the “proximity of CXCR2/Rluc8 to Venus/Rab9 (BRET)” value is on record as “small increase”. Also, the “proximity of CXCR2/Rluc8 to Venus/Rab11a (BRET)” value on AT1R-CXCR2 heteromer is “barely any effect”.

The record behind these values is patent publication US20240009191A1, “METHOD AND COMPOSITION FOR THE TREATMENT OF DISEASE” (DIMERIX BIOSCIENCE PTY LTD, priority 2019, published 2024).
